Experimental data: patent publication US20230220021A1, “CYCLIC PEPTIDE INHIBITORS OF PSD-95 AND USES THEREOF” (University of Copenhagen, priority 2020, published 2023)
Where two headings read alike, the source gives them in different places. Where a SMILES comes first, the peptide text is derived from it. [ ]: non-standard residue; d: D form.

Molecular target: T1, PSD-95-PDZ2 (Homo sapiens, UniProt P78352)
T1 construct: 7xHis (N); made in house; host or cells: Escherichia coli B21 pLys (for the mutants, 'as previously described')
Assay: Fluorescence polarization (FP) competition assay against cyclic nNOS TAMRA probe
Type: binding
Conditions: for Ki: cyclic nNOS TAMRA probe, mean of triplicates, N.B. = not binding; for Relative Ki (Ki mut/Ki WT): FP inhibition constant normalized to WT value

T1 sequence (P78352 160-246 limits assumed): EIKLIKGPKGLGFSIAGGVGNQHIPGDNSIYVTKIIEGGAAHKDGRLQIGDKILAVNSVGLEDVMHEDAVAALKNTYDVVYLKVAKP

Compound | Ki (FP competition, read-out: Ki) [nM] | Relative Ki (Ki mut/Ki WT) | other results
CC[C@H](C)[C@@H]1NC(=O)[C@H]([C@@H](C)O)NC(=O)[C@H](CCCCN)NC(=O)[C@@H]2CCCN2C(=O)CNC(=O)[C@H](CC(=O)O)NC(=O)CNC(=O)[C@H]([C@@H](C)O)NC(=O)[C@H](Cc2ccccc2)NC(=O)[C@H]([C@@H](C)O)NC(=O)[C@H]([C@@H](C)O)NC(=O)[C@H](CCC(=O)O)NC(=O)[C@H](CC(C)C)NC(=O)[C@H](Cc2c[nH]cn2)NC(=O)[C@H]([C@@H](C)O)NC(=O)[C@H](CCC(N)=O)NC(=O)CNC(=O)[C@H]2CCCN2C(=O)[C@H](CCC(N)=O)NC(=O)[C@H]([C@@H](C)O)NC(=O)[C@H](C(C)C)NC(=O)[C@H](CCCNC(=N)N)NC1=O [compound 77] (cyclo(THLETTFTGDGPKTIRVTQ[dP]GQ)) | 1430 | – | –
90 (THLETTXTGDGTPKTIRVTQPGQ; cyclized peptide; (7)..(7) X is N-Me-F; (21)..(21) is D-AA) [compound 90] | – | – | Ki (FP competition): N.B.
104 (THLEXTFTGDGTPKTIRVTQPGQ; cyclized peptide; (5)..(5) X is pT; (21)..(21) is D-AA) [compound 104] | – | – | Ki (FP competition): N.B.
CC[C@H](C)[C@@H]1NC(=O)[C@H]([C@@H](C)O)NC(=O)[C@H](CCCCN)NC(=O)[C@@H]2CCCN2C(=O)[C@H]([C@@H](C)O)NC(=O)CNC(=O)[C@H](CC(=O)O)NC(=O)CNC(=O)[C@H]([C@@H](C)O)NC(=O)[C@H](Cc2ccccc2)NC(=O)[C@H]([C@@H](C)O)NC(=O)[C@H]([C@@H](C)O)NC(=O)[C@H](CCC(=O)O)NC(=O)[C@H](CC(C)C)NC(=O)[C@H](CCC(=O)O)NC(=O)[C@H]([C@@H](C)O)NC(=O)[C@H](CCC(N)=O)NC(=O)CNC(=O)[C@H]2CCCN2C(=O)[C@H](CCC(N)=O)NC(=O)[C@H]([C@@H](C)O)NC(=O)[C@H](C(C)C)NC(=O)[C@H](CCCNC(=N)N)NC1=O [compound 23] (cyclo(TELETTFTGDGTPKTIRVTQ[dP]GQ)) | 6190 | 4.13 | –
105 (THLETXFTGDGTPKTIRVTQPGQ; cyclized peptide; (6)..(6) X is pT; (21)..(21) is D-AA) [compound 105] | – | – | Ki (FP competition): N.B.
CC[C@H](C)[C@@H]1NC(=O)[C@H]([C@@H](C)O)NC(=O)[C@H](CCCCN)NC(=O)[C@@H]2CCCN2C(=O)[C@H]([C@@H](C)O)NC(=O)CNC(=O)[C@H](CC(=O)O)NC(=O)CN(C)C(=O)[C@H]([C@@H](C)O)NC(=O)[C@H](Cc2ccccc2)NC(=O)[C@H]([C@@H](C)O)NC(=O)[C@H]([C@@H](C)O)NC(=O)[C@H](CCC(=O)O)NC(=O)[C@H](CC(C)C)NC(=O)[C@H](Cc2c[nH]cn2)NC(=O)[C@H]([C@@H](C)O)NC(=O)[C@H](CCC(N)=O)NC(=O)CNC(=O)[C@H]2CCCN2C(=O)[C@H](CCC(N)=O)NC(=O)[C@H]([C@@H](C)O)NC(=O)[C@H](C(C)C)NC(=O)[C@H](CCCNC(=N)N)NC1=O [compound 92] | 6190 | – | –
CC[C@H](C)[C@@H]1NC(=O)[C@H]([C@@H](C)O)NC(=O)[C@H](CCCCN)NC(=O)[C@@H]2CCCN2C(=O)[C@H]([C@@H](C)O)NC(=O)CNC(=O)[C@H](CC(=O)O)NC(=O)CNC(=O)[C@H]([C@@H](C)O)NC(=O)[C@H](Cc2ccccc2)NC(=O)[C@H]([C@@H](C)O)NC(=O)[C@H]([C@@H](C)O)NC(=O)[C@H](CCC(=O)O)NC(=O)[C@H](CC(C)C)NC(=O)[C@H](Cc2c[nH]cn2)NC(=O)[C@H]([C@@H](C)O)NC(=O)[C@H](CCC(N)=O)NC(=O)CNC(=O)[C@H]2CCCN2C(=O)[C@H](CCC(N)=O)NC(=O)[C@H]([C@@H](C)O)NC(=O)[C@H](CCCNC(=N)N)NC(=O)[C@H](CCCNC(=N)N)NC1=O [compound 43] (cyclo(THLETTFTGDGTPKTIRRTQ[dP]GQ)) | – | 1.13 | –
CC[C@H](C)[C@@H]1NC(=O)[C@H]([C@@H](C)O)NC(=O)[C@H](CCCCN)NC(=O)[C@@H]2CCCN2C(=O)[C@H]([C@@H](C)O)NC(=O)[C@@H]2CCCN2C(=O)[C@H](CC(=O)O)NC(=O)CNC(=O)[C@H](Cc2c[nH]c3ccccc23)NC(=O)[C@H](Cc2ccccc2)NC(=O)[C@H]([C@@H](C)O)NC(=O)[C@H]([C@@H](C)O)NC(=O)[C@H](CCC(=O)O)NC(=O)[C@H](CC(C)C)NC(=O)[C@H](Cc2c[nH]cn2)NC(=O)[C@H]([C@@H](C)O)NC(=O)[C@H](CCC(N)=O)NC(=O)CNC(=O)[C@H]2CCCN2C(=O)[C@H](CCC(N)=O)NC(=O)[C@H]([C@@H](C)O)NC(=O)[C@H](C(C)C)NC(=O)[C@H](CCCNC(=N)N)NC1=O [compound 131] (cyclo(THLETTFWGDPTPKTIRVTQ[dP]GQ)) | 950 | – | –
87 (THLXTTFTGDGTPKTIRVTQPGQ; cyclized peptide; (4)..(4) X is N-Me-E; (21)..(21) is D-AA) [compound 87] | – | – | Ki (FP competition): N.B.
CC[C@H](C)[C@@H]1NC(=O)[C@H]([C@@H](C)O)NC(=O)[C@H](CCCCN)NC(=O)[C@@H]2CCCN2C(=O)[C@H]([C@@H](C)O)NC(=O)CNC(=O)[C@H](CC(=O)O)NC(=O)CNC(=O)[C@H]([C@@H](C)O)NC(=O)[C@H](Cc2ccccc2)NC(=O)[C@H]([C@@H](C)O)NC(=O)[C@H]([C@@H](C)O)NC(=O)[C@H](CCC(=O)O)NC(=O)[C@H](CC(C)C)NC(=O)[C@H](Cc2c[nH]cn2)NC(=O)[C@H]([C@@H](C)O)NC(=O)[C@H](CCC(N)=O)NC(=O)CNC(=O)[C@H]2CCCN2C(=O)[C@H](CCC(N)=O)NC(=O)[C@H]([C@@H](C)O)NC(=O)[C@H](C(C)C)NC(=O)[C@@H](CCCNC(=N)N)NC1=O [compound 126] | 9000 | – | –
Cyclo-(THLESTFTGDGTPKTIRVTQpG(Qα)) (cyclo(THLESTFTGDGTPKTIRVTQ[dP]GQ); SMILES CC[C@H](C)[C@@H]1NC(=O)[C@H]([C@@H](C)O)NC(=O)[C@H](CCCCN)NC(=O)[C@@H]2CCCN2C(=O)[C@H]([C@@H](C)O)NC(=O)CNC(=O)[C@H](CC(=O)O)NC(=O)CNC(=O)[C@H]([C@@H](C)O)NC(=O)[C@H](Cc2ccccc2)NC(=O)[C@H]([C@@H](C)O)NC(=O)[C@H](CO)NC(=O)[C@H](CCC(=O)O)NC(=O)[C@H](CC(C)C)NC(=O)[C@H](Cc2c[nH]cn2)NC(=O)[C@H]([C@@H](C)O)NC(=O)[C@H](CCC(N)=O)NC(=O)CNC(=O)[C@H]2CCCN2C(=O)[C@H](CCC(N)=O)NC(=O)[C@H]([C@@H](C)O)NC(=O)[C@H](C(C)C)NC(=O)[C@H](CCCNC(=N)N)NC1=O) [SEQ ID NO: 52] | – | – | fold lowered (decreased) binding affinity of the cyclic peptide (FP competition, relative to unsubstituted cyclic peptide): 7 fold
CC[C@H](C)[C@@H]1NC(=O)[C@H](CO)NC(=O)[C@H](CCCCN)NC(=O)[C@@H]2CCCN2C(=O)[C@H]([C@@H](C)O)NC(=O)CNC(=O)[C@H](CC(=O)O)NC(=O)CNC(=O)[C@H]([C@@H](C)O)NC(=O)[C@H](Cc2ccccc2)NC(=O)[C@H]([C@@H](C)O)NC(=O)[C@H]([C@@H](C)O)NC(=O)[C@H](CCC(=O)O)NC(=O)[C@H](CC(C)C)NC(=O)[C@H](Cc2c[nH]cn2)NC(=O)[C@H]([C@@H](C)O)NC(=O)[C@H](CCC(N)=O)NC(=O)CNC(=O)[C@H]2CCCN2C(=O)[C@H](CCC(N)=O)NC(=O)[C@H]([C@@H](C)O)NC(=O)[C@H](C(C)C)NC(=O)[C@H](CCCNC(=N)N)NC1=O [compound 50] (cyclo(THLETTFTGDGTPKSIRVTQ[dP]GQ)) | – | 4.79 | –
CC[C@H](C)[C@@H]1NC(=O)[C@H]([C@@H](C)O)NC(=O)[C@H](CCCCN)NC(=O)[C@@H]2CCCN2C(=O)[C@H](CCC(=O)O)NC(=O)CNC(=O)[C@@H](CC(=O)O)NC(=O)CNC(=O)[C@H](Cc2c[nH]c3ccccc23)NC(=O)[C@H](Cc2ccccc2)NC(=O)[C@H]([C@@H](C)O)NC(=O)[C@H]([C@@H](C)O)NC(=O)[C@H](CCC(=O)O)NC(=O)[C@H](CC(C)C)NC(=O)[C@H](Cc2c[nH]cn2)NC(=O)[C@H]([C@@H](C)O)NC(=O)[C@H](CCC(N)=O)NC(=O)CNC(=O)[C@H]2CCCN2C(=O)[C@H](CCC(N)=O)NC(=O)[C@H]([C@@H](C)O)NC(=O)[C@H](C(C)C)NC(=O)[C@H](CCCNC(=N)N)NC1=O [compound 135] (cyclo(THLETTFWG[dD]GEPKTIRVTQ[dP]GQ)) | 190 | – | –
CC[C@H](C)[C@@H]1NC(=O)[C@H]([C@@H](C)O)NC(=O)[C@H](CCCCN)NC(=O)[C@@H]2CCCN2C(=O)[C@H]([C@@H](C)O)NC(=O)CNC(=O)[C@H](CC(=O)O)NC(=O)CNC(=O)[C@H]([C@@H](C)O)NC(=O)[C@H](Cc2ccccc2)NC(=O)[C@H]([C@@H](C)O)NC(=O)[C@H]([C@@H](C)O)NC(=O)[C@H](CCC(=O)O)NC(=O)[C@H](CC(C)C)NC(=O)[C@H](Cc2c[nH]cn2)NC(=O)[C@H]([C@@H](C)O)NC(=O)[C@H](CCC(N)=O)NC(=O)CNC(=O)[C@H]2CCCN2C(=O)[C@H](CCC(N)=O)NC(=O)[C@H]([C@@H](C)O)NC(=O)[C@H](Cc2ccc(O)cc2)NC(=O)[C@H](CCCNC(=N)N)NC1=O [compound 47] (cyclo(THLETTFTGDGTPKTIRYTQ[dP]GQ)) | – | 0.85 | –
CC[C@H](C)[C@@H]1NC(=O)[C@H]([C@@H](C)O)NC(=O)[C@H](CCCCN)NC(=O)[C@@H]2CCCN2C(=O)[C@H](CC(N)=O)NC(=O)CNC(=O)[C@H](CC(=O)O)NC(=O)CNC(=O)[C@H]([C@@H](C)O)NC(=O)[C@H](Cc2ccccc2)NC(=O)[C@H]([C@@H](C)O)NC(=O)[C@H]([C@@H](C)O)NC(=O)[C@H](CCC(=O)O)NC(=O)[C@H](CC(C)C)NC(=O)[C@H](Cc2c[nH]cn2)NC(=O)[C@H]([C@@H](C)O)NC(=O)[C@H](CCC(N)=O)NC(=O)CNC(=O)[C@H]2CCCN2C(=O)[C@H](CCC(N)=O)NC(=O)[C@H]([C@@H](C)O)NC(=O)[C@H](C(C)C)NC(=O)[C@H](CCCNC(=N)N)NC1=O [compound 40] (cyclo(THLETTFTGDGNPKTIRVTQ[dP]GQ)) | – | 0.34 | –
CC[C@H](C)[C@@H]1NC(=O)[C@H]([C@@H](C)O)NC(=O)[C@H](CCCCN)NC(=O)[C@@H]2CCCN2C(=O)[C@H]([C@@H](C)O)NC(=O)CNC(=O)[C@H](CCCNC(=N)N)NC(=O)CNC(=O)[C@H]([C@@H](C)O)NC(=O)[C@H](Cc2ccccc2)NC(=O)[C@H]([C@@H](C)O)NC(=O)[C@H]([C@@H](C)O)NC(=O)[C@H](CCC(=O)O)NC(=O)[C@H](CC(C)C)NC(=O)[C@H](Cc2c[nH]cn2)NC(=O)[C@H]([C@@H](C)O)NC(=O)[C@H](CCC(N)=O)NC(=O)CNC(=O)[C@H]2CCCN2C(=O)[C@H](CCC(N)=O)NC(=O)[C@H]([C@@H](C)O)NC(=O)[C@H](C(C)C)NC(=O)[C@H](CCCNC(=N)N)NC1=O [compound 34] (cyclo(THLETTFTGRGTPKTIRVTQ[dP]GQ)) | 990 | 0.66 | –
